Measured values taken from article PMC11290853, “Cholesterol-dependent dynamic changes in the conformation of the type 1 cholecystokinin receptor affect ligand binding and G protein coupling” (PLOS Biology, 2024).
Substitutions are numbered along the chain they refer to.

Key:
[1] = target: T1, CCK1R(Y140A) (Homo sapiens, UniProt P32238, Y140A); assay: fluorescence polarization kinetic assay, CCK1R(Y140A); type: binding
T1 construct: expressed in transfected cells; some KO cells re-transfected with Galphaq or Galpha11), receptor-enriched membranes
T1 sequence (P32238 1-428 Y140A): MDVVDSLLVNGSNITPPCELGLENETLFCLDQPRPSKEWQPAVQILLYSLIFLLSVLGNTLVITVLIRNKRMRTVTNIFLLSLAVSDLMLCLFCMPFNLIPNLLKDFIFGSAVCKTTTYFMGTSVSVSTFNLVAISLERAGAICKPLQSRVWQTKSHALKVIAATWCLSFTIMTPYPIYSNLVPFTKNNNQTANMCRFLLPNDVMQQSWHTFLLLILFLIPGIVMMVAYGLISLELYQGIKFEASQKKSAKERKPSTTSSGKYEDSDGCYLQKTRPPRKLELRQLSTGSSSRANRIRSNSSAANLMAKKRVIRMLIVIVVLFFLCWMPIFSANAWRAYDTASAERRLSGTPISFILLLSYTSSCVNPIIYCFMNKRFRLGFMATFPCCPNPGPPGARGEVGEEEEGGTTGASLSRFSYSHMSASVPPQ
Description: (§1) Cells were grown either in Ham-F12 medium supplemented with 5% Fetal Clone II or DMEM supplemented with 10% Fetal Clone II with 1% penicillin-streptomycin, 4 mM glutamine mixture in a humidified atmosphere containing 5% CO2 at 37°C.
(§2) This was done in the absence or presence of the non-hydrolyzable GTP analogue, GppNHp, at 10 μM concentration.

[2] = target: T2, CCK2R(sterol 7M) (Homo sapiens, UniProt P32239, A149S/A235M/F228L/L143F/L225I/S154G/V232I); assay: fluorescence polarization kinetic assay, CCK2R(sterol 7M); type: binding; conditions: vs CCK2R
T2 construct: expressed in transfected cells
T2 sequence (P32239 1-447 L143F/A149S/S154G/L225I/F228L/V232I/A235M): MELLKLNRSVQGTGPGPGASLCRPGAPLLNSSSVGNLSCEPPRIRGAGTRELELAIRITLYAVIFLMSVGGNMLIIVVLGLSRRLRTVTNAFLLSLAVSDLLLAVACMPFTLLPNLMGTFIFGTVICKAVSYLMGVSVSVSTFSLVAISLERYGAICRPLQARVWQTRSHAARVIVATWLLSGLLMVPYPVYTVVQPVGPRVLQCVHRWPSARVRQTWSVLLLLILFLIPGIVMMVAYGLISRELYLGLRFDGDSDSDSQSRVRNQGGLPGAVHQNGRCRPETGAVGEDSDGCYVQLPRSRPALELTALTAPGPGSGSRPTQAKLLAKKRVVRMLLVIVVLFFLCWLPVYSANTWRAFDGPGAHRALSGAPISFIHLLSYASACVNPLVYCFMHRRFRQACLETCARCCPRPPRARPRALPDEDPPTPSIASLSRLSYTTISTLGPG
Description: as §1, §2

[3] = target: T3, CCK2R WT (Homo sapiens, UniProt P32239); assay: fluorescence polarization kinetic assay, CCK2R WT; type: binding
T3 construct: expressed in transfected cells; some KO cells re-transfected with Galphaq or Galpha11), receptor-enriched membranes
T3 sequence (P32239 1-447): T2 sequence (P32239 1-447 L143F/A149S/S154G/L225I/F228L/V232I/A235M) with F143L, S149A, G154S, I225L, L228F, I232V, M235A
Description: as §1, §2

[4] = target: T4, CCK1R(sterol 7M) (Homo sapiens, UniProt P32238, F130L/G141S/I216L/I223V/L219F/M226A/S136A); assay: fluorescence polarization kinetic assay, CCK1R(sterol 7M); type: binding
T4 construct: expressed in transfected cells
T4 sequence (P32238 1-428 F130L/S136A/G141S/I216L/L219F/I223V/M226A): T1 sequence (P32238 1-428 Y140A) with F130L, S136A, A140Y, G141S, I216L, L219F, I223V, M226A
Description: as §1, §2

[5] = target: T5, SRD15-CCK1R cells (Homo sapiens, UniProt P32238); assay: fluorescence polarization kinetic assay, SRD15-CCK1R cells; type: binding; conditions: vs WT CCK1R
T5 construct: expressed in transfected cells; host or cells: SRD15 cells (genetically modified CHO cells with elevated membrane cholesterol)
T5 sequence (P32238 1-428): T1 sequence (P32238 1-428 Y140A) with A140Y
Description: as §1, §2

[6] = system: CCK1R(Y140A); assay: photoaffinity labeling, CCK1R(Y140A); type: binding, human; conditions: CNBr cleavage, 10% NuPAGE gel
Description: (§3) After incubation, contents were transferred to a siliconized glass tube and exposed to UV irradiation for 30 min at 4°C with 3,500-Å lamps in a Rayonet photochemical reactor (Southern New England Ultraviolet, Hamden, Connecticut). After photolysis, membrane suspensions were centrifuged at 25,000×g for 5 min and washed twice with ice-cold medium and then resuspended in 30 μl of SDS sample buffer prior to separation on 10% SDS-polyacrylamide gels. Gels were dried and radiolabeled bands were visualized by autoradiography. The apparent molecular weight of radiolabeled receptor fragments was determined from the mobility of Prosieve color protein standards (Cambrex, Rockland, Maine). Receptor radiolabeled bands were excised from the polyacrylamide gel, eluted, and lyophilized, then precipitated with ethanol. Radiochemically pure receptor suspension was cleaved with 2.5 mg of CNBr in 70% formic acid, as described previously. The cleaved receptor products were washed, dried, and resolve in 10% NuPAGE gel with MES running buffer (Invitrogen, Carlsbad, California). The labeled products were identified by autoradiography.

[7] = system: WT CCK1R; conditions: large glycosylated CNBr fragment; ref [28],[31]; cited from earlier work
[8] = system: CCK2R; conditions: CNBr fragment; ref [28]; cited from earlier work
[9] = system: CCK1R(sterol 7M); assay: photoaffinity labeling, CCK1R(sterol 7M); type: binding, human; conditions: CNBr cleavage, 10% NuPAGE gel
Description: as §3

Compound | off rate, Gq or G11 transfected ([1]; Gq/11 KO cells) | rate of CCK dissociation (off rate) ([1]; vs WT CCK1R) | ligand dissociation [2] | ligand dissociation rate, Gq or G11 reintroduced ([3]; Gq/11 KO cells) | rate of CCK dissociation (off rate) ([3]; vs WT CCK1R) | kinetics in Gq/11 KO cells ([4]; absence of Gq/11 proteins) | off rate ([4]; vs CCK1R and CCK1R(Y140A)) | rate of CCK dissociation (off rate) [5] | photoaffinity labeling pattern [6] | site of covalent labeling [7] | site of covalent labeling [8] | photoaffinity labeling pattern [9]
CCCC[C@H](NC(=O)[C@H](Cc1ccc(OS(=O)(=O)O)cc1)NC(=O)[C@H](CC(=O)O)NC(=O)CNC(=O)c1ccc(-c2c3ccc(=N)c(S(=O)(=O)O)c-3oc3c(S(=O)(=O)O)c(N)ccc23)c(C(=O)O)c1)C(=O)NCC(=O)N[C@@H](Cc1c[nH]c2ccccc12)C(=O)N[C@@H](CCCC)C(=O)N[C@@H](CC(=O)O)C(=O)N[C@@H](Cc1ccccc1)C(N)=O [alexa^488-Gly-[(Nle^28,31)CCK-26-33]] | transfection of Gq, but not G11, reversed the higher off rate | significantly slower | significantly faster ligand dissociation than CCK2R | reintroduction of either Gq or G11 reversed the increased ligand dissociation rate | slower at WT CCK2R relative to WT CCK1R | not altered by absence of Gq/11 proteins | intermediate between that of CCK1R and CCK1R(Y140A) | significantly slower |  |  |  | 
(^125I-des-amino-Tyr)-Gly-[(Nle^28,31)CCK(26–32)]-Bpa^33 |  |  |  |  |  |  |  |  | labeling of a much smaller and non-glycosylated fragment of the receptor | Trp39 | Thr119 | the same as previously demonstrated for WT CCK1R
